Data set [1] addresses T1, Solute carrier family 22 member 6 (Rattus norvegicus, UniProt O35956).
T1 sequence (O35956 whole entry): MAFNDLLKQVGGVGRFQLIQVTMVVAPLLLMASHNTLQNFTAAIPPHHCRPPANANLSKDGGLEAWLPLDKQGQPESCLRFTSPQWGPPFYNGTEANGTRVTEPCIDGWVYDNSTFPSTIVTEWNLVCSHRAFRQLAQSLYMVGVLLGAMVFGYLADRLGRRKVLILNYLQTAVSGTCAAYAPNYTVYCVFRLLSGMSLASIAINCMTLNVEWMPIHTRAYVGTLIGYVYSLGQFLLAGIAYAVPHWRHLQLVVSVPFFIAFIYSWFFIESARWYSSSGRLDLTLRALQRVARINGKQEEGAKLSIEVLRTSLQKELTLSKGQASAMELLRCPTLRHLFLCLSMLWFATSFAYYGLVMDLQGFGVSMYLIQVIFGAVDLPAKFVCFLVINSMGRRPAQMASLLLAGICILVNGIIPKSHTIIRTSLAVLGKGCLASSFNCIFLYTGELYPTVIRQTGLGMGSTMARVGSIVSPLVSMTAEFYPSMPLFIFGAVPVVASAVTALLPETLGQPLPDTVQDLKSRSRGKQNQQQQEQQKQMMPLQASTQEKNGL
Description: TP_TRANSPORTER: inhibition of PAH uptake (PAH: 2 uM, ACV: 1000 uM) in Xenopus laevis oocytes. The data set is classed as functional, cell-based. The note with it: oocyte.

Data set [2] deals with T1, Solute carrier family 22 member 6. Description: (§1) TP_TRANSPORTER: uptake in Xenopus laevis oocytes. The data set is classed as functional, cell-based, Oocyte. Conditions: for Activity: oocyte.
Data set [3] has the same target. Description: TP_TRANSPORTER: inhibition of PAH uptake (PAH: 2 uM, Foscarnet: 1000 uM) in Xenopus laevis oocytes. The note with it: oocyte. The data set is classed as functional, cell-based.
The target is the same in data set [4]. The data set is described as follows: TP_TRANSPORTER: inhibition of PAH uptake (PAH: 2 uM, Trifluridine: 1000 uM) in Xenopus laevis oocytes. The data set is classed as functional, cell-based. Conditions: oocyte.
Substrate in data set [5]: Nc1nc2c(ncn2COCCO)c(=O)[nH]1
The description is as §1. The data set is classed as functional, cell-based, Oocyte.

In ChEMBL document CHEMBL2073872, “Rat multispecific organic anion transporter 1 (rOAT1) transports zidovudine, acyclovir, and other antiviral nucleoside analogs” (J Pharmacol Exp Ther, 2000) one finds Activity and Km data, which are given here for 9 molecules.

What is called Km is the substrate concentration at which the rate is half of its maximum.

For the molecule `Nc1nc2c(ncn2COCCO)c(=O)[nH]1` [ACYCLOVIR], in data set [1], the Activity result was “inhibitor [(at a rough estimate) 50 % of control]”.
On to `O=c1[nH]cnc2c1ncn2[C@H]1CC[C@@H](CO)O1` [DIDANOSINE], for which the Activity result in data set [2] was “substrate [+]”.
In the case of `O=C(O)P(=O)(O)O` [FOSCARNET], the Activity result in data set [3] is “is not an inhibitor [-]”; in data set [2] it was “is not a substrate [-]”.
Take `Nc1ccn([C@@H]2CS[C@H](CO)O2)c(=O)n1` [LAMIVUDINE]: the Activity result in data set [2] was “substrate [+]”.
For `Cc1cn([C@H]2C=C[C@@H](CO)O2)c(=O)[nH]c1=O` [STAVUDINE], in data set [2], the Activity entry is “substrate [+]”.
With `O=c1[nH]c(=O)n([C@H]2C[C@H](O)[C@@H](CO)O2)cc1C(F)(F)F` [TRIFLURIDINE], the Activity result is “inhibitor [(at a rough estimate) 50 % of control]” in data set [4] and “substrate [+]” in data set [2].
For the molecule `Nc1ccn([C@H]2CC[C@@H](CO)O2)c(=O)n1` [ZALCITABINE], the Activity result in data set [2] is “substrate [+]”.
Take `Cc1cn([C@H]2C[C@H](N=[N+]=[N-])[C@@H](CO)O2)c(=O)[nH]c1=O` [ZIDOVUDINE]: the Michaelis-Menten constant (Km) in data set [2] (Xenopus laevis oocytes) came to 68 µM.

B1: Solute carrier family 22 member 6 (Rattus norvegicus) (protein)
chain: T1 sequence (O35956 whole entry)
Regarding B1, in data set [5], the Km was found to be 242 µM.
